Experimental findings from patent US20240382483A1, “HETEROCYCLIC EGFR INHIBITORS FOR USE IN THE TREATMENT OF CANCER” (Blueprint Medicines Corporation, priority 2021, published 2024) are described below.

For experiment [1], the target named is T1, intracellular phosphorylation of EGFR in NCI-H1975 cell line that harbors the EGFR L858R T790M mutations (Homo sapiens, UniProt P00533, L858R/T790M).
T1 construct: NCI-H1975 cell line that harbors the EGFR L858R T790M mutations (ATCC, CRL-5908); host or cells: NCI-H1975
T1 sequence (P00533 25-1210 T790M/L858R): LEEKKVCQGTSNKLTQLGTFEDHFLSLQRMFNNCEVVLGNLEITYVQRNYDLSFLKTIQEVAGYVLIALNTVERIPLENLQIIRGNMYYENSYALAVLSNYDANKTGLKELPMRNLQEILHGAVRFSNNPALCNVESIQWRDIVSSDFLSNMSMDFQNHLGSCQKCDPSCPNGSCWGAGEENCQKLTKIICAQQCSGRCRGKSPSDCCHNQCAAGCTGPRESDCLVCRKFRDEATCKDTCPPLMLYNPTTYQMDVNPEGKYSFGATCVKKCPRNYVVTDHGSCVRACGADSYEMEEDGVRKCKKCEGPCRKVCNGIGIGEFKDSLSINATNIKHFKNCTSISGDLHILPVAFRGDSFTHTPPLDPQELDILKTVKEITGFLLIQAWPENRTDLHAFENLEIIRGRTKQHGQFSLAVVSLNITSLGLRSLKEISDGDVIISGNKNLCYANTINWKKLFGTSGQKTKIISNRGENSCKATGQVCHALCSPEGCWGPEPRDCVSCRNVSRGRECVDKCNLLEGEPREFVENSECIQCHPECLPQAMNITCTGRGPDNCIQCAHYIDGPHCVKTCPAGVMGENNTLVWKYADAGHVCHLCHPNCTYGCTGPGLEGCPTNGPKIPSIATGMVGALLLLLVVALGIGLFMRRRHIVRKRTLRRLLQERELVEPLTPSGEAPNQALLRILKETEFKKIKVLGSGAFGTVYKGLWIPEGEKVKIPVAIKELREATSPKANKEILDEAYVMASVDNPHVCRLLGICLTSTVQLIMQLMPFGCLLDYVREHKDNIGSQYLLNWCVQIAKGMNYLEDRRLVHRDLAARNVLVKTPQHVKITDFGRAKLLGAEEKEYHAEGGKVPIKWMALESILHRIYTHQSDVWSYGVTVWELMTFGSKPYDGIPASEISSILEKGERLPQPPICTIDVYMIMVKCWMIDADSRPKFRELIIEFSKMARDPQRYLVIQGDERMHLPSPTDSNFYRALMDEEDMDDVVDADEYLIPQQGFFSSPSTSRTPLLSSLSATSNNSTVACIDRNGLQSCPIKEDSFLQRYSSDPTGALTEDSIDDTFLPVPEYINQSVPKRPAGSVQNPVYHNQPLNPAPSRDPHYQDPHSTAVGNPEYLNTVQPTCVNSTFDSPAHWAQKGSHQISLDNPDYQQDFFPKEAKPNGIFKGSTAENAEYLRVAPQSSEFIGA
Kind of experiment: NCI-H1975 pEGFR AlphaLISA assay. In kind it is cell-based. As to conditions: NCI-H1975 cells (EGFR L858R T790M), p-EGFR (Tyr1068), 4-5 hours incubation; read-out: Ext pEGFR H1975 GMean IC50 (nM) Protocol: @Pharmaron AlphaLISA (Num). As to the method:
On the next day, the test compounds and DMSO control were added into H1975 cell plate followed by incubation at 37C/5% CO2 for 4-5 hours. […] Then 5 μL of a donor bead mix was added to each well followed by overnight incubation at room temperature in dark. On the next day, the plate was read at a compatible plate reader to obtain pEGFR signal. Percent of pEGFR inhibition was plotted against log concentration of compounds to generate IC50 values.
For orientation: Bead proximity is the source of the signal in Alpha formats.

For the next experiment, the target named is T2, EGFR (L858R T790M C797S) (Homo sapiens, UniProt P00533, C797S/L858R/T790M).
T2 construct: purchased SignalChem E10-122VG
T2 sequence (P00533 25-1210 T790M/C797S/L858R): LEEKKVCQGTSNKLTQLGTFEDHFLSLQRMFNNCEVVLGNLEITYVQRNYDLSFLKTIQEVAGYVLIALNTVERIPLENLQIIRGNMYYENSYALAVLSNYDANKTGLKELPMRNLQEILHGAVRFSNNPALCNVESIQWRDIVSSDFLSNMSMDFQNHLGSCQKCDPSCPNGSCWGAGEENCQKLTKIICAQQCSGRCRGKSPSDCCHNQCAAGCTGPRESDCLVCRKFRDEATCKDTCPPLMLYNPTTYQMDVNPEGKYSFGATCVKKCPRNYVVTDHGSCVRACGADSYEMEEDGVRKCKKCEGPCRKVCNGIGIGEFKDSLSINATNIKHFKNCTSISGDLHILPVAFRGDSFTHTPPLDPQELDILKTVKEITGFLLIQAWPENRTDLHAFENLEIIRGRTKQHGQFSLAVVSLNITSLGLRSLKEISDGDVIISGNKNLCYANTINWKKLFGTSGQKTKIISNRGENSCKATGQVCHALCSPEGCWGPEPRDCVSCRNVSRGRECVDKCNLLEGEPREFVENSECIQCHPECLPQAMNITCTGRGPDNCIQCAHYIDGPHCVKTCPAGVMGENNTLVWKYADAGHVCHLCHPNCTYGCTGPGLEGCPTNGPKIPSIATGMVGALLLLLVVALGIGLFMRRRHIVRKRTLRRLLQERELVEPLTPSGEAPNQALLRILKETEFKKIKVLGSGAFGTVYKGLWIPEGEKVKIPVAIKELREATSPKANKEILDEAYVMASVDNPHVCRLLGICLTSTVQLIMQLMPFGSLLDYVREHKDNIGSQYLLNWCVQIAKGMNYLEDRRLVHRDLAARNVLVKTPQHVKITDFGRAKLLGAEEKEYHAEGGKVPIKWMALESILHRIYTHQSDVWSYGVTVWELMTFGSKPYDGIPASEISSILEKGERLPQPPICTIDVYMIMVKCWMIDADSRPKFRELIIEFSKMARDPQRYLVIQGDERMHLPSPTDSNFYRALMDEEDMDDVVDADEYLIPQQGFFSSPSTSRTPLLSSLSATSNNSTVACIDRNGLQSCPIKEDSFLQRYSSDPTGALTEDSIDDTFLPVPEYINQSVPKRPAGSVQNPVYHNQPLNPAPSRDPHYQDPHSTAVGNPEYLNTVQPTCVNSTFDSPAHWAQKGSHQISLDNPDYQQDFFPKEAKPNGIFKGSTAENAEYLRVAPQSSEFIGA
Kind of experiment: Biochemical EGFR inhibition assay (Caliper mobility shift), EGFR LRTMCS. As to conditions: LRTMCS (PH) IC50 (nM) @ 1 mM ATP (Num), EGFR LRTMCS mutant. A digest of the protocol:
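Apparent IC50s were derived by plotting percent activity against the log of compound concentration. Activity was measured as phosphopeptide electrophoretically separated from substrate, after reactions at room temperature reached 10% to 20% phosphorylation and were halted with 35 mM EDTA.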

Usually IC50 stands for the concentration at which inhibition is half-maximal.

`CO[C@@H]1CCN(c2nccc(Nc3cc4c(C(C)C)cnc(N5C[C@H](O)[C@H]5C)c4cn3)n2)C[C@@H]1O` (single isomer, unassigned) [Example 122, (3S,4R)-1-(4-((8-((2R,3S)-3-hydroxy-2-methylazetidin-1-yl)-5-isopropyl-2,7-naphthyridin-3-yl)amino)pyrimidin-2-yl)-4-methoxypiperidin-3-ol or (3R,4S)-1-(4-((8-((2R,3S)-3-hydroxy-2-methylazetidin-1-yl)-5-isopropyl-2,7-naphthyridin-3-yl)amino)pyrimidin-2-yl)-4-methoxypiperidin-3-ol]: the IC50 in experiment [1] was 10 to 20 nM; on EGFR (L858R T790M C797S), less than 15 nM.
As to `CO[C@H]1CCN(c2nccc(Nc3cc4c(C(C)C)cnc(N5CCC56CN(C)C6)c4cn3)n2)C[C@H]1F` [Example 42, N-(2-((3R,4S)-3-fluoro-4-methoxypiperidin-1-yl)pyrimidin-4-yl)-5-isopropyl-8-(6-methyl-1,6-diazaspiro[3.3]heptan-1-yl)-2,7-naphthyridin-3-amine], the half-maximal inhibitory concentration (IC50) in experiment [1] is greater than 50 nM; at EGFR (L858R T790M C797S), 20 to 30 nM.
In the case of `C[C@@H]1CCN1c1ncc([C@@H]2CCOC2)c2cc(Nc3ccnc(N4CC[C@@H](O)[C@@H](F)C4)n3)ncc12` (single isomer, unassigned) [Example 162, (3S,4R)-3-fluoro-1-(4-((8-((R)-2-methylazetidin-1-yl)-5-((S)-tetrahydrofuran-3-yl)-2,7-naphthyridin-3-yl)amino)pyrimidin-2-yl)piperidin-4-ol or (3S,4R)-3-fluoro-1-(4-((8-((R)-2-methylazetidin-1-yl)-5-((R)-tetrahydrofuran-3-yl)-2,7-naphthyridin-3-yl)amino)pyrimidin-2-yl)piperidin-4-ol], the IC50 in experiment [1] was 30 to 50 nM; at EGFR (L858R T790M C797S), less than 15 nM.
In the same order, the values of `CC(C)c1ncc(-c2ccn(C)n2)c2cnc(Nc3ccnc(N4CC[C@@H](O)[C@@](C)(F)C4)n3)cc12` [Example 11, (3S,4R)-3-fluoro-1-(4-((5-isopropyl-8-(1-methyl-1H-pyrazol-3-yl)-2,6-naphthyridin-3-yl)amino)pyrimidin-2-yl)-3-methylpiperidin-4-ol] are 30 to 50 nM and 20 to 30 nM.
As to `Cc1nc(-c2ncc(C(C)C)c3cc(Nc4ccnc(N5CC[C@@H](O)[C@@](C)(F)C5)n4)ncc23)n[nH]1` [Example 24, (3S,4R)-3-fluoro-1-(4-((5-isopropyl-8-(5-methyl-1H-1,2,4-triazol-3-yl)-2,7-naphthyridin-3-yl)amino)pyrimidin-2-yl)-3-methylpiperidin-4-ol], the half-maximal inhibitory concentration (IC50) in experiment [1] is 30 to 50 nM; at EGFR (L858R T790M C797S), less than 15 nM.
As to `CC(C)c1cnc(N2CCC23CN(C)C3)c2cnc(Nc3ccnc(N4CCC5(CCO5)CC4)n3)cc12` [Example 116, N-(2-(1-oxa-7-azaspiro[3.5]nonan-7-yl)pyrimidin-4-yl)-5-isopropyl-8-(6-methyl-1,6-diazaspiro[3.3]heptan-1-yl)-2,7-naphthyridin-3-amine], the results for the IC50 (in experiment [1]; at EGFR (L858R T790M C797S)) were greater than 50 nM and 20 to 30 nM, respectively.
On to `CC(C)c1ccc(N2C[C@H](O)[C@H]2C)c2cnc(Nc3ccnc(N4CC[C@@H](O)[C@@](C)(F)C4)n3)cc12` [Example 103, (3S,4R)-3-fluoro-1-(4-((8-((2R,3S)-3-hydroxy-2-methylazetidin-1-yl)-5-isopropylisoquinolin-3-yl)amino)pyrimidin-2-yl)-3-methylpiperidin-4-ol], for which the IC50 in experiment [1] was 10 to 20 nM; at EGFR (L858R T790M C797S) it was less than 15 nM.
For the compound `CO[C@H]1CCN(c2nccc(Nc3cc4c(C(C)C)ccc(N5C[C@H](c6nnco6)[C@H]5C)c4cn3)n2)C[C@@H]1O` (single isomer, unassigned) [Example 217], the half-maximal inhibitory concentration (IC50) was less than 10 nM in experiment [1] and 15 to 20 nM on EGFR (L858R T790M C797S).
In the same order, the values of `CO[C@@H]1CCN(c2nccc(Nc3cc4c(C(C)C)cnc(N5CC6(CCS6(=O)=O)C5)c4cn3)n2)C[C@@H]1O` (single isomer, unassigned) [Example 124, 6-(6-((2-((3S,4R)-3-hydroxy-4-methoxypiperidin-1-yl)pyrimidin-4-yl)amino)-4-isopropyl-2,7-naphthyridin-1-yl)-1-thia-6-azaspiro[3.3]heptane 1,1-dioxide or 6-(6-((2-((3R,4S)-3-hydroxy-4-methoxypiperidin-1-yl)pyrimidin-4-yl)amino)-4-isopropyl-2,7-naphthyridin-1-yl)-1-thia-6-azaspiro[3.3]heptane 1,1-dioxide] are 30 to 50 nM and less than 15 nM.
In the same order, the values of `COC(=O)NCC1CN(c2ncc(C(C)C)c3cc(Nc4ccnc(N5CC[C@@H](O)[C@@](C)(F)C5)n4)ncc23)C1` [Example 84, methyl ((1-(6-((2-((3S,4R)-3-fluoro-4-hydroxy-3-methylpiperidin-1-yl)pyrimidin-4-yl)amino)-4-isopropyl-2,7-naphthyridin-1-yl)azetidin-3-yl)methyl)carbamate] are 20 to 30 nM and less than 15 nM.
With `CC(C)c1cnc(N2CCC2)c2cnc(Nc3ccnc(N4CC[C@@H](O)[C@@](C)(F)C4)n3)cc12` [Example 46, (3S,4R)-1-(4-((8-(azetidin-1-yl)-5-isopropyl-2,7-naphthyridin-3-yl)amino)pyrimidin-2-yl)-3-fluoro-3-methylpiperidin-4-ol], the half-inhibitory concentration (IC50) in experiment [1] is 20 to 30 nM; on EGFR (L858R T790M C797S), less than 15 nM.
With `CO[C@H]1CCN(c2nccc(Nc3cc4c(C(C)C)ccc(N5C[C@H](c6nncn6C)[C@H]5C)c4cn3)n2)C[C@@H]1O` (single isomer, unassigned) [Example 218], the figures for the IC50 (in experiment [1]; at EGFR (L858R T790M C797S)) were 30 to 50 nM and less than 15 nM, respectively.
Take `CC(C)c1cnc(N2CC3(CCS3(=O)=O)C2)c2cnc(Nc3ccnc(N4CC[C@@H](O)[C@@](C)(F)C4)n3)cc12` [Example 98, 6-(6-((2-((3S,4R)-3-fluoro-4-hydroxy-3-methylpiperidin-1-yl)pyrimidin-4-yl)amino)-4-isopropyl-2,7-naphthyridin-1-yl)-1-thia-6-azaspiro[3.3]heptane 1,1-dioxide]: the half-inhibitory concentration (IC50) in experiment [1] is 10 to 20 nM; on EGFR (L858R T790M C797S) it was less than 15 nM.
Consider `CC(C)c1cnc(N2CCCC2)c2cnc(Nc3ccnc(N4CC[C@@H](O)[C@@H](F)C4)n3)cc12` [Example 151, (3S,4R)-3-fluoro-1-(4-((5-isopropyl-8-(pyrrolidin-1-yl)-2,7-naphthyridin-3-yl)amino)pyrimidin-2-yl)piperidin-4-ol], for which the results for the half-maximal inhibitory concentration (IC50) (in experiment [1]; at EGFR (L858R T790M C797S)) were 30 to 50 nM and 20 to 30 nM, respectively.
The matching figures for `CC(C)c1cnc(N2C[C@H](O)[C@H]2C)c2cnc(Nc3ccnc(N4C[C@H](F)[C@H](O)[C@](C)(F)C4)n3)cc12` (single isomer, unassigned) [Example 134, (3R,4S,5S)-3,5-difluoro-1-(4-((8-((2R,3S)-3-hydroxy-2-methylazetidin-1-yl)-5-isopropyl-2,7-naphthyridin-3-yl)amino)pyrimidin-2-yl)-3-methylpiperidin-4-ol or (3S,4R,5R)-3,5-difluoro-1-(4-((8-((2R,3S)-3-hydroxy-2-methylazetidin-1-yl)-5-isopropyl-2,7-naphthyridin-3-yl)amino)pyrimidin-2-yl)-3-methylpiperidin-4-ol]: greater than 50 nM and 30 to 100 nM.
`CC(C)c1cnc(N2C[C@@H](F)[C@@H]2C)c2cnc(Nc3ccnc(N4CC[C@@H](O)[C@@](C)(F)C4)n3)cc12` (single isomer, unassigned) [Example 34, (3S,4R)-3-fluoro-1-(4-((8-((2S,3R)-3-fluoro-2-methylazetidin-1-yl)-5-isopropyl-2,7-naphthyridin-3-yl)amino)pyrimidin-2-yl)-3-methylpiperidin-4-ol or (3S,4R)-3-fluoro-1-(4-((8-((2R,3S)-3-fluoro-2-methylazetidin-1-yl)-5-isopropyl-2,7-naphthyridin-3-yl)amino)pyrimidin-2-yl)-3-methylpiperidin-4-ol]: the 50% inhibitory concentration (IC50) was greater than 50 nM in experiment [1] and less than 15 nM on EGFR (L858R T790M C797S).
For `CC(C)c1cnc(N2CC(O)C2)c2cnc(Nc3ccnc(N4CCC5(CCO5)CC4)n3)cc12` [Example 117, 1-(6-((2-(1-oxa-7-azaspiro[3.5]nonan-7-yl)pyrimidin-4-yl)amino)-4-isopropyl-2,7-naphthyridin-1-yl)azetidin-3-ol], the IC50 in experiment [1] is greater than 50 nM; at EGFR (L858R T790M C797S) it was 15 to 20 nM.
On to `CC(C)c1cnc(N2CC[C@H]2C)c2cnc(Nc3ccnc(N4CC[C@H](OCCN(C)C)[C@H](F)C4)n3)cc12` [Example 202, N-(2-((3R,4S)-4-(2-(dimethylamino)ethoxy)-3-fluoropiperidin-1-yl)pyrimidin-4-yl)-5-isopropyl-8-((R)-2-methylazetidin-1-yl)-2,7-naphthyridin-3-amine], for which the figures for the IC50 (in experiment [1]; on EGFR (L858R T790M C797S)) were 30 to 50 nM and 30 to 100 nM, respectively.
As for `CC(C)c1cnc(N2CC(C)(C(=O)N(C)C)C2)c2cnc(Nc3ccnc(N4CC[C@@H](O)[C@@](C)(F)C4)n3)cc12` [Example 93, 1-(6-((2-((3S,4R)-3-fluoro-4-hydroxy-3-methylpiperidin-1-yl)pyrimidin-4-yl)amino)-4-isopropyl-2,7-naphthyridin-1-yl)-N,N,3-trimethylazetidine-3-carboxamide], the results for the IC50 (in experiment [1]; at EGFR (L858R T790M C797S)) were 10 to 20 nM and less than 15 nM, respectively.
